What is called DC50 is the concentration at which degradation of the target reaches its halfway point.

SMILES strings stand for the structures. Where only a bound is given, the exact number is not on record here.

This test has as its target T1, ERα protein (HiBiT-tagged) in ESR1_HiBiT KI MCF7 cells (Homo sapiens, UniProt P03372).
T1 sequence (P03372 1-595): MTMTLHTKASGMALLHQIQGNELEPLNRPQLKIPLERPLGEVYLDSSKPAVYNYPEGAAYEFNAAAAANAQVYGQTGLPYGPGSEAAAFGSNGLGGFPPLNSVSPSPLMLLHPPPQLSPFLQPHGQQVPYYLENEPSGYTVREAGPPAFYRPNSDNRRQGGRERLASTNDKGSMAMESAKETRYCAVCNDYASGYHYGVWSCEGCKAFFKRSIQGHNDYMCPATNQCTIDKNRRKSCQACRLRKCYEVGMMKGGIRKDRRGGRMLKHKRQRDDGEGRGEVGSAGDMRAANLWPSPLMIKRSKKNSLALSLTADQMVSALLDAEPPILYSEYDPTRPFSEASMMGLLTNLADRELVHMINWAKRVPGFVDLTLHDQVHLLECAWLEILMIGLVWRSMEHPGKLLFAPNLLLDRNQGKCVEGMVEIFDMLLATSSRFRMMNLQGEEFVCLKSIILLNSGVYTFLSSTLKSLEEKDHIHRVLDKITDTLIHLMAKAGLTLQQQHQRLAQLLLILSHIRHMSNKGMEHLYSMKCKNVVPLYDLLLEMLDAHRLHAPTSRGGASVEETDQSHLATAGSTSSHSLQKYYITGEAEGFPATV
The test is described as follows: Nano Glo HiBiT Lytic Degradation Assay. It counts as cell-based. The conditions noted are these: 6 hours with compound, 14-point dose response 1:3, bell-shape curve fit, half-maximal effect of first Hill model, read-out: MCF7 ESR1 HiBiT - (DC50). A digest of the protocol:
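ESR1_HiBiT knock-in MCF7 cells were seeded 24 h before treatment, then exposed to compounds for 6 h at 37° C (14-point 1:3 curves, 10 mM top stock, 0.1% DMSO final, duplicates). HiBiT-ERα was read by lytic LgBiT luminescence, background-subtracted and normalized to DMSO. DC50 was taken from the half-maximal point of the first Hill component of a bell-shaped fit.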
On the technique in general: With HiBiT, luminescence reflects the tagged protein that the partner subunit can reach.
On to `Cn1nc([C@H]2CCC(=O)NC2=O)c2ccc(N3CCN(CC4CCN(c5ccc([C@@H]6c7ccc(O)cc7CO[C@@H]6c6ccccc6)cc5)CC4)CC3)cc21` (single isomer, unassigned) [Compound I-394], for which the half-maximal degradation concentration (DC50) was 0.39 nM.
As to `O=C1CC[C@H](N2Cc3cc(N4CCN(CC5CCN(c6ccc([C@@H]7c8ccc(O)cc8CO[C@]78CCCc7ccccc78)cc6)CC5)CC4)ccc3C2=O)C(=O)N1` (single isomer, unassigned) [Compound I-272], the DC50 was found to be 4 nM.
Next, `O=C1CC[C@H](N2Cc3cc(N4CCN(CC5CCN(c6ccc([C@@H]7c8ccc(O)cc8CC[C@@H]7C7CCCCC7)cc6)CC5)CC4)ccc3C2=O)C(=O)N1` [Compound I-6, (3S)-3-[5-[4-[[1-[4-[(1R,2R)-2-cyclohexyl-6-hydroxy-tetralin-1-yl]phenyl]-4-piperidyl]methyl]piperazin-1-yl]-1-oxo-isoindolin-2-yl]piperidine-2,6-dione]: 2.24 nM; `Cc1cc([C@@H]2c3ccc(O)cc3CC[C@@H]2c2ccccc2)ccc1N1CCC(CN2CCN(c3ccc4c(c3)CN([C@H]3CCC(=O)NC3=O)C4=O)CC2)CC1` (single isomer, unassigned) [II-42]: ≥ 10000 nM.
Next, `CC(C)C[C@H]1OCc2cc(O)ccc2[C@H]1c1ccc(N2CCC(CN3CCN(c4ccc5c(c4)CN([C@H]4CCC(=O)NC4=O)C5=O)CC3)CC2)cc1` (single isomer, unassigned) [Compound I-224]: 0.48 nM; `C[C@@H]1OC2(CCCCC2)[C@@H](c2ccc(N3CCC(CN4CCN(c5ccc6c(c5)CN([C@H]5CCC(=O)NC5=O)C6=O)CC4)CC3)cc2)c2ccc(O)cc21` (single isomer, unassigned) [Compound I-270]: ≥ 10000 nM.
Turning to `O=C1CCC(N2Cc3cc(N4CCN(CC5CCN(c6ccc([C@@H]7c8ccc(O)cc8CC[C@@H]7c7cccc8c7CC8)cc6)CC5)CC4)ccc3C2=O)C(=O)N1` (single isomer, unassigned) [Compound I-100], the DC50 came to 0.33 nM.
For `O=C1CCC(N2Cc3cc([C@@H]4CCN(CC5CCN(c6ccc([C@@H]7c8ccc(O)cc8CC[C@@H]7c7ccccc7)cc6)CC5)C[C@H]4F)ccc3C2=O)C(=O)N1` (single isomer, unassigned) [II-88], the DC50 was determined as 2 nM.
`C[C@H]1CN(CC2CCN(c3ccc([C@H]4c5ccc(O)cc5CC[C@H]4c4ccccc4)cc3)CC2)CCN1c1ccc2c(c1)CN([C@H]1CCC(=O)NC1=O)C2=O` (single isomer, unassigned) [II-12]: the DC50 is ≥ 10000 nM.
In the case of `O=C1CC[C@H](c2ccc(N3CCC4(CCN(CC5CCN(c6ccc([C@@H]7c8ccc(O)cc8CC[C@@H]7c7ccccc7)cc6)CC5)C4)CC3)cc2)C(=O)N1` (single isomer, unassigned) [Compound I-283], the DC50 turned out to be 5 nM.
As for `O=C1CC[C@H](N2Cc3cc(N4CCN(CC5CCN(c6ccc([C@@H]7c8ccc(O)cc8CC[C@@H]7c7ccccc7)cn6)CC5)CC4)ccc3C2=O)C(=O)N1` [II-80], the DC50 amounted to 0.68 nM.
Turning to `CC(C)[C@@H]1CC(F)(F)c2cc(O)ccc2[C@@H]1c1ccc(N2CCC(CN3CCN(c4ccc5c(c4)CN([C@H]4CCC(=O)NC4=O)C5=O)CC3)CC2)cc1` [Compound I-153, (S)-3-(5-(4-((1-(4-((1S,2S)-4,4-difluoro-6-hydroxy-2-isopropyl-1,2,3,4-tetrahydronaphthalen-1-yl)phenyl)piperidin-4-yl)methyl)piperazin-1-yl)-1-oxoisoindolin-2-yl)piperidine-2,6-dione], the DC50 is 13 nM.
On to `Cn1nc(C2CCC(=O)NC2=O)c2ccc(N3CCN(CC4CCN(c5ccc([C@@H]6c7ccc(O)cc7C(F)(F)C[C@@H]6c6ccccc6)cc5)CC4)CC3)cc21` (single isomer, unassigned) [Compound I-298], for which the half-maximal degradation concentration (DC50) amounted to 1 nM.
In the case of `Cc1cc(N2CCC3(CCN(CC4CCN(c5ccc([C@@H]6c7ccc(O)cc7CC[C@@H]6c6ccccc6)cc5)CC4)C3)CC2)ccc1N1CCC(=O)NC1=O` [Compound I-293] it was 0.52 nM.
